According to publication PMC4962987, “Identification of Chalcones as Fasciola hepatica Cathepsin L Inhibitors Using a Comprehensive Experimental and Computational Approach” (PLoS Neglected Tropical Diseases, 2016):

Tests used:
FhCL1 [1] = target: T1, FhCL1 (Fasciola hepatica, UniProt Q7JNQ9); assay: fluorogenic Z-VLK-AMC enzyme assay, % inhibition at […]; format: biochemical
T1 construct: gene CL1

FhCL3 [2] = target: T2, FhCL3 (Fasciola hepatica, UniProt B3TM67); assay: biochemical; parameters: fluorogenic peptide-AMC hydrolysis (Z-VLK-AMC FhCL1, Tos-GPR-AMC FhCL3), initial rates, 5 min preincubation; conditions: read-out: % inh. FhCL3
T2 construct: gene CL3
T2 sequence (B3TM67 88-306): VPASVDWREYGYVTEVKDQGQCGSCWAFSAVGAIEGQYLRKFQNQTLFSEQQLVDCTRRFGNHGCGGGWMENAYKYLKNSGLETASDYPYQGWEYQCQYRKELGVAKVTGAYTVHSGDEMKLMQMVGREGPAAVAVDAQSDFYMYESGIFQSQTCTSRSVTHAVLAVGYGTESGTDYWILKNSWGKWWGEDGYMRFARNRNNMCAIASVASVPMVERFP
Experimental: (§1) A 10 mM stock of each evaluated compound was prepared in dimethylsulfoxide (DMSO). Enzyme activity assays were conducted to evaluate the inhibitory capacity of the different compounds. FhCL1 and FhCL3 were used at nanomolar concentrations to measure initial rates during the first 10 min of the assay and compounds were tested at a moderate fixed dose of 10 μM. Briefly, each enzyme and compound were preincubated 5 minutes in a 96-well plate in 0.1M sodium phosphate buffer pH 6, 1 mM DTT and 1 mM EDTA at room temperature. The reaction was initiated by the addition of 20 μM of substrate, a synthetic peptide conjugated to the fluorophore 7-amino-4-methylcoumarin (AMC). Enzyme activity was measured by the increase in AMC fluorescence as peptide substrates were hydrolyzed (Z-VLK-AMC for FhCL1 and Tos-GPR-AMC for FhCL3) at an excitation wavelength of 340 nm and emission wavelength of 440 nm using a spectrofluorometer (Varioskan Thermo). Enzyme activity was expressed as RFU/s (relative fluorescence units of AMC released per unit of time). Each compound was tested in duplicate. A progress curve without enzyme was performed to control for non-catalyzed reactions between substrates and inhibitors and a spectrum from 300 to 450 nm wavelength was done for each inhibitor to verify that none of the compounds has optical activity in the measurement range. The percentage of enzyme inhibition was calculated as: 100 - (vi/vo) x 100, where vi and vo correspond to the initial rate of AMC fluorescence increase (RFU/s) with and without inhibitor, respectively. We evaluated forty flavonoids from three structural clusters of our own chemistry library as inhibitors of FhCL1 and FhCL3. Cluster I contained twenty-six chalcones modified in ring B (C1-C26, Fig 1A), cluster II contained naphtolchalcone derivatives (C27-C35, Fig 1B) and cluster III was composed of flavones modified in ring B (C36-C40, Fig 1B). Initially, we screened the compounds at a low concentration of 10 μM measuring initial rates during the first 10 min, finding activities ranging from 0% to 75% enzyme inhibition (Fig 1).

FhCL1 [3] = target: T3, FhCL1 (Fasciola hepatica, UniProt Q7JNQ9); assay: biochemical; parameters: fluorogenic peptide-AMC hydrolysis (Z-VLK-AMC FhCL1, Tos-GPR-AMC FhCL3), initial rates, 5 min preincubation
T3 construct: gene CL1
T3 sequence (Q7JNQ9 108-326): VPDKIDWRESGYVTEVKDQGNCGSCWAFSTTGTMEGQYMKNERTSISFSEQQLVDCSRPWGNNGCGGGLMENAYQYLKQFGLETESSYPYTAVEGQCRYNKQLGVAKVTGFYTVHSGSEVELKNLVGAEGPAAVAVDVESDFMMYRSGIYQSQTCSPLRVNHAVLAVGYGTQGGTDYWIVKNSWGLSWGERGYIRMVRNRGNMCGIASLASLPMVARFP
Experimental: as §1

FhCL3 [4] = target: T4, FhCL3 (Fasciola hepatica, UniProt B3TM67); assay: biochemical; parameters: fluorogenic peptide-AMC hydrolysis (Z-VLK-AMC FhCL1, Tos-GPR-AMC FhCL3), initial rates, 5 min preincubation; conditions: read-out: % inh. FhCL3; remark: listed apart in the source
T4 construct: gene CL3
Experimental: as §1

FhCL1 [5] = target: T1, FhCL1; assay: biochemical; parameters: fluorogenic peptide-AMC hydrolysis (Z-VLK-AMC FhCL1, Tos-GPR-AMC FhCL3), initial rates, 5 min preincubation; remark: listed apart in the source
Experimental: as §1

FhCL3 [6] = target: T4, FhCL3; assay: fluorogenic Tos-GPR-AMC enzyme assay, % inhibition at […]; format: biochemical

Structure (SMILES)	inhibition at 10 µM (FhCL3 [2]) [%]	inhibition at 10 µM (FhCL1 [3]) [%]	other results
O=C(/C=C/c1ccc(Cl)cc1)c1ccccc1O [C10]	–	–	inhibition at 10 µM (FhCL1 [1]): 63%
O=C(/C=C/c1ccccn1)c1ccccc1O [C22]	0	54 ± 7	–
O=C(/C=C/c1ccco1)c1ccccc1O [C23]	4 ± 10	57 ± 8	–
O=C(/C=C/c1cccs1)c1ccccc1O [C24]	9 ± 11	52 ± 5	–
O=C(/C=C/c1ccccc1)c1ccc2ccccc2c1 [C27]	13 ± 4	–	inhibition at 10 µM (FhCL1 [1]): 65%
O=C(/C=C/c1cccc2ccccc12)c1ccccc1 [C28]	39 ± 5	38 ± 3	–
O=C(CC(CC(=O)c1ccccc1)c1cccc2ccccc12)c1ccccc1 [C29]	27 ± 2	17 ± 9	–
O=C(/C=C/c1ccc2ccccc2c1)c1ccccc1 [C30]	38 ± 7	62 ± 2	–
O=C(/C=C/c1ccc2ccccc2c1)c1ccccc1O [C31]	41 ± 5	61 ± 2	–
O=C(/C=C/c1cccc2ccccc12)c1ccccc1O [C32]	32 ± 8	42 ± 6	–
O=C(/C=C/c1ccc2ccccc2c1)c1ccc2ccccc2c1O [C33]	29 ± 5	65 ± 6	–
O=C(/C=C/c1cccc2ccccc12)c1c(O)ccc2ccccc12 [C34]	–	–	inhibition at 10 µM (FhCL3 [4]): 65 ± 6%; inhibition at 10 µM (FhCL1 [5]): 75 ± 4%
O=C(/C=C/c1ccc2ccccc2c1)c1c(O)ccc2ccccc12 [C35]	44 ± 6	67 ± 3	inhibition at 10 µM (FhCL1 [1]): > 50%; inhibition at 10 µM (FhCL3 [6]): > 50%
O=c1cc(-c2ccccc2)oc2ccccc12 [C36]	8 ± 4	5 ± 1	–
O=c1cc(-c2ccc(Cl)cc2)oc2ccccc12 [C37]	17 ± 1	0	–
O=c1cc(-c2ccc(Br)cc2)oc2ccccc12 [C38]	19 ± 3	21 ± 10	–
COc1ccc(-c2cc(=O)c3ccccc3o2)cc1 [C39]	0	20 ± 7	–
O=c1c(O)c(-c2ccc(O)c(O)c2)oc2cc(O)cc(O)c12 [C40, Quercetin]	–	–	inhibition at 10 µM (FhCL3 [4]): 8 ± 1%; inhibition at 10 µM (FhCL1 [5]): 15 ± 8%
